Assay results: paper PMC6759624, “Unraveling Heparan Sulfate Proteoglycan Binding Motif for Cancer Cell Selectivity” (Frontiers in Oncology, 2019)

T1: recombinant human glypican-4 (human, UniProt O75487 19-529)
T1 construct: also called GPC4; rHSPG; source: bought: R&D Systems; from the Chinese Hamster Ovary cell line
T1 sequence (looked up): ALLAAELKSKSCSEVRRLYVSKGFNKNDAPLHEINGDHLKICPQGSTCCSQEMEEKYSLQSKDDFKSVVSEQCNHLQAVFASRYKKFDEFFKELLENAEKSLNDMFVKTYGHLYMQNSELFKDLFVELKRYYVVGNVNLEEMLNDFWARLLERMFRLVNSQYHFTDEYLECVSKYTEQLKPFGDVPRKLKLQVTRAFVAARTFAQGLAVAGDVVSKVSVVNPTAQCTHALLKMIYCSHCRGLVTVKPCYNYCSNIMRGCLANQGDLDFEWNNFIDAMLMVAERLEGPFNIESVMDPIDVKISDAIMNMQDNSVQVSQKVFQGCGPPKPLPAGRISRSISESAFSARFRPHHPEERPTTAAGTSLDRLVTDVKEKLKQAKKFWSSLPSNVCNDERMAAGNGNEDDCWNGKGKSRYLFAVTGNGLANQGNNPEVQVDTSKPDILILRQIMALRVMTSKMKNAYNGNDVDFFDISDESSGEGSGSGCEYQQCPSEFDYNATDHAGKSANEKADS

B1: Syndecan-4: full-length recombinant human HSPG from mouse myeloma cell line (NS0), R&D Systems (protein)
chain: ESIRETEVIDPQDLLEGRYFSGALPDDEDVVGPGQESDDFELSGSGDLDDLEDSMIGPEVVHPLVPLDNHIPERAGSGSQVPTEPKKLEENEVIPKRISPVEESEDVSNKVSMSSTVQGSNIFERTEVLAALIVGGIVGILFAVFLILLLMYRMKKKDEGSYDLGKKPIYKKAPTNEFYA
B2: NT4-biotin (pyELYENKPRRPYIL)4K2K-PEG12-K(biotin) (peptide)
peptide: ELYENKPRRPYIL
modifications: pyroglutamate at position 1 (pyE); the four arms are built on a branching core of lysines, K2K-PEG12-K(biotin)
notes: the 13-amino-acid arm of the tetrabranched peptide; the first letter is pyroglutamate (printed pyE); Tetrabranched: four copies of the arm joined by their C-termini to the amines of a three-lysine core (K2K), followed by PEG12 and Lys(biotin); The core is not written as a chain; also called NT4 peptide; NT4 conjugated with biotin; source: synthetic peptide (Fmoc chemistry, HPLC purified); not …
B3: Glypican-4: full-length recombinant human HSPG from Chinese Hamster Ovary cell line, R&D Systems (protein)
chain: T1 sequence (looked up)

How the values were obtained:
[1] = system: NT4 (NT4-biotin captured on streptavidin CM5 chip); assay: SPR, rHSPG injected over immobilized NT4 (Biacore T100); format: binding; conditions: for Ka (Kon): HBS-EP+ (Hepes 10 mM, NaCl 150 mM, EDTA 3.4 mM, 0.05% p20, pH 7.4), 1:1 Langmuir model, full-length recombinant human HSPG as analyte; for Kd (koff) / Kd: HBS-EP+ pH 7.4, 1:1 Langmuir model, rHSPG as analyte; for Kd (koff): dissociation rate
Procedure: Experiments were performed on a Biacore T100 instrument (GE Healthcare). All materials were purchased from GE Healthcare unless otherwise specified. Full-length recombinant human HSPG were purchased from R&D Systems. Syndecan-3, syndecan-4, and glypican-3 were obtained from the mouse myeloma cell line (NS0), and glypican-4 was obtained from the Chinese Hamster Ovary cell line. The activity of syndecan-4, glypican-3, and glypican-4 was measured by the supplier as the ability of the immobilized protein to bind FGF-basic. The activity of syndecan-3 was measured by the supplier as the ability of the immobilized protein to inhibit adhesion of Saos-2 human osteosarcoma cells to human fibronectin.
(§1) NT4-biotin was captured on a CM5 sensor chip where streptavidin had previously been immobilized by standard amine coupling. Briefly, the sensor chip surface was activated with a mixture of 0.1 M 1-ethyl-3(3-dimethylaminopropyl)-carbodiimide (EDC) and 0.4 M N-hydroxyl succinimide (NHS) for 7 min at a flow rate of 5 μl/min. Streptavidin was injected over the surface for 7 min, and finally, 1 M ethanolamine pH 8.5 was used to block any activated carboxyl groups. NT4-biotin, diluted in HBS-EP+ (Hepes 10 mM, NaCl 150 mM, EDTA 3.4 mM, 0.05% p20, pH 7.4) to 30 μg/ml, was injected for 2 min at a flow rate of 10 μl/min.
(§2) HSPG and oligosaccharides were diluted to different concentrations in HBS-EP+ and then injected over immobilized NT4 peptides. The sensor chip surface was regenerated with a short pulse of 10 mM NaOH/0.5 M NaCl 5 min after the end of the injections.
(§3) Kinetics were analyzed with the Biacore T100 evaluation 1.1.1 software using the 1:1 Langmuir model to fit the curves.

[2] = system: cancer cell lines; conditions: confocal microscopy, 37°C; "completely internalized only after 2 h"; ref [14], [16]; cited from earlier work
[3] = system: living cells; conditions: after 24 h; mass spectrometry; ref [14]; cited from earlier work
[4] = system: NT4 (NT4-biotin captured on streptavidin CM5 chip); assay: SPR, synthetic sulfated oligosaccharides injected over immobilized NT4; format: binding; conditions: for Kd (koff) / Ka (Kon) / Kd: immobilized NT4-biotin, HBS-EP+ pH 7.4, 1:1 Langmuir model, oligosaccharide as analyte; for Kd (koff): dissociation rate; for oligosaccharide binding to immobilized NT4 (in words): oligosaccharide 100 μg/ml (Figure 4E)
From the text: Eight-mer and nine-mer oligosaccharides S00 (GlcNAc-GlcA)4 α-paranitrophenyl, S04 (GlcNS-GlcA)4 α-paranitrophenyl, S06a (GlcA-GlcNS)2-(GlcA-GlcNS,6S)2-GlcA α-paranitrophenyl (9-mer), and S06b GlcNS-GlcA-GlcNS-IdoA,2S-GlcNS-IdoA,2S-GlcNS-GlcA α-paranitrophenyl were purchased from Iduron. In all oligosaccharides, the units were linked together by α (1–4) bonds only and carry a paranitrophenyl group. S12 (ΔHexA,2S α1-4 GlcNS,6S)3 (9-mer) was from Amsbio, and its first glycoside is unsaturated.
as §1, §2, §3

[5] = target: recombinant human syndecan-4 (human, UniProt P31431 19-198); assay: SPR; Biacore T100; NT4-biotin captured on streptavidin on a CM5 chip; HSPG diluted in HBS-EP+ (Hepes 10 mM, NaCl 150 mM, EDTA 3.4 mM, 0.05% p20, pH 7.4) injected over it; 1:1 Langmuir model; conditions: both partners purified
[6] = target: recombinant human glypican-3 (human, UniProt P51654 25-580); assay: as above; conditions: both partners purified
[7] = target: T1, recombinant human glypican-4; assay: as above; conditions: both partners purified

Molecule | Ka (Kon) [1] [M⁻¹ s⁻¹] | Kd (koff) [1] [s⁻¹] | Kd [1] [nM] | Kd (koff) [4] [s⁻¹] | Ka (Kon) [4] [M⁻¹ s⁻¹] | Kd [4] [nM] | oligosaccharide binding to immobilized NT4 (in words) [4] | further results
Glypican-3: full-length recombinant human HSPG from mouse myeloma cell line (NS0), R&D Systems | 23920 | 0.001433 | 59.9 |  |  |  |  | 
(pyELYENKPRRPYIL)4K2K-PEG12-K(biotin) [NT4-biotin] |  |  |  |  |  |  |  | time to complete internalization [2]: 2 h; stability on degradation by living cells [3]: still stable after 24 h
(ΔHexA,2S α1-4 GlcNS,6S)3 [S12] |  |  |  | 0.0009126 | 3530 | 258 | best-binding oligosaccharide | 
(GlcNS-GlcA)4 α-paranitrophenyl [S04] |  |  |  |  |  |  | almost total loss of binding | 
GlcNS-GlcA-GlcNS-IdoA,2S-GlcNS-IdoA,2S-GlcNS-GlcA α-paranitrophenyl [S06b] |  |  |  | 0.004039 | 1490 | 2700 |  | 
(GlcA-GlcNS)2-(GlcA-GlcNS,6S)2-GlcA α-paranitrophenyl [S06a] |  |  |  | 0.002575 | 1060 | 2430 | bound NT4 better | 
B1 | 9010 | 0.002316 | 257 |  |  |  |  | 
B2 |  |  |  |  |  |  |  | Kd [5]: 257 nM; koff [5]: 0.00232 s⁻¹; kon [5]: 9010 M⁻¹ s⁻¹; Kd [6]: 59.9 nM; koff [6]: 0.00143 s⁻¹; kon [6]: 23900 M⁻¹ s⁻¹; Kd [7]: 77.1 nM; koff [7]: 0.000672 s⁻¹; kon [7]: 8710 M⁻¹ s⁻¹
B3 | 8710 | 0.0006719 | 77.1 |  |  |  |  | 
